Measured values: US7468369B2, “Sulfonyl pyrrolidines, method for producing the same and their use as drugs” (Sanofi-Aventis, priority 2005, dated 2008)
Structures can show the parent of a compound that is named as a salt.

Test system: human ABCA1 promoter
Assay: ABCA1 promoter test (luciferase reporter in stably transfected THP1 cell line)
Assay type: cell-based
Settings: ABCA1 reporter cell line (THP1, PMA-differentiated), 24 h incubation, luciferase chemiluminescence; read-out: E50 ABCA1
Description: The potency of substances which activate expression of the human ABCA1 gene via its promoter is analyzed by using a stably transfected THP1 cell line (human monocyte cell line) which is referred to herein as ABCA1 reporter cell line. It contains a fragment, 3.2 kb in size and stably integrated into the genome, of the human ABCA1 promoter in front of a luciferase reporter element. Expression of the luciferase reporter gene is only low without addition of an ABCA1 expression activator. The substances stimulating ABCA1 expression bring about, via activation of the ABCA1 promoter, an enhanced expression of the luciferase reporter gene. The luciferase which is formed can be detected via an appropriate substrate by means of chemiluminescence.
Construction of the Cell Line
The ABCA1 reporter line was prepared as follows: firstly the neomycin resistance gene (Acc. No.: AJ000156) was introduced into the luciferase reporter plasmid pLG3basic (#1751, Promega) 3′ below the luciferase reporter element. Subsequently, an ABCA1 promoter fragment, 3.2 kb in size and amplified from human genomic DNA (#6550-1, Clontech) by the polymerase chain reaction, was cloned in 5′ above the luciferase reporter element. The reporter plasmid produced in this way was called pGL3BN-ABCA1P. Luciferase expression in this plasmid is controlled by the ABCA1 promoter. Cloning and sequencing of the construct took place in analogy to the description in Sambrook J et al. (Molecular cloning, Cold Spring Harbor Laboratory Press, 1989). For stable transfection into THP1 cells, firstly pGL3BN-ABCA1P was linearized with a restriction endonuclease and then introduced into the THP1 cells as stated in Ausubel, F. M. et al. (Current protocols in molecular biology, Vol. 1-3, John Wiley & Sons, Inc., 1995).
The activity of ABCA1 expression activators is determined in a 3-day test which is described below:
The ABCA1 reporter cell line comprises suspension cells. These are cultured until the concentration is 0.5×10^6 cells/ml in RPMI medium (#52400-025, Invitrogen) which is mixed with the following additions: 10% FCS (fetal calf serum; #16000-044, invitrogen), 0.5 mg/ml Geneticin (#10131-019, invitrogen) and 1% penicillin-streptomycin solution (#15140-122, invitrogen). The culturing takes place in standard cell culture flasks (#353112, Becton Dickinson) in a cell culture incubator at 37° C. in the presence of 5% CO2.
For the ABCA1 promoter test, the suspension cells are centrifuged at 1200 rpm in 50 ml tubes. The supernatant is aspirated off, and the pellet is resuspended in 15 ml of RPMI medium and counted in a cell counter. After dilution to 175 000 cells/ml, 0.1 μg/ml PMA (phorbol 12-myristate 13-acetate, #8139-5MG, Sigma) is added in order to induce differentiation of the monocytic THP1 suspension cells into adherent macrophages. 35 000 cells in each well are seeded in a 96-well microtiter plate with clear plastic base (#3610, Corning Costar). The plates are incubated in a cell culture incubator at 37° C. and 5% CO2 for 24 h.
The ABCA1 expression activators to be tested are dissolved in a concentration of 10 mM in DMSO. This stock solution is diluted in the RPMI medium (mixed with 0.1 μg/ml PMA) described above. Test substances are tested in 11 different concentrations in the range from […] to 330 pM. The medium of the ABCA1 reporter cell line seeded on day 1 is completely removed by aspiration and the diluted test substances are immediately added to the cells. The dilution and addition of the substances takes place with a pipetting robot (Beckman FX). The final volume of the test substances diluted in medium is 100 μl per well of a 96-well microtiter plate. The DMSO concentration in the test is less than 0.1% v/v in order to avoid cytotoxic effects of the solvent.
The test plates are incubated in an incubator at 37° C. and 5% CO2 for 24 h.
The ABCA1 reporter cells treated with the test substances are removed from the incubator and the medium is aspirated off. […]

Question: How did the EC50 turn out when `COc1cccc(S(=O)(=O)N2CC(C(=O)N3CCN(c4cc(C)ccc4C)CC3)C(c3ccsc3)C2)c1` (stereo not drawn) [Example 110, [4-(2,5-Dimethylphenyl)piperazin-1-yl]-[1-(3-methoxybenzenesulfonyl)-3,4-trans-4-thiophen-3-ylpyrrolidin-3-yl]methanone trifluoroacetate] was run?
Answer: The EC50 was 914 nM.

Same assay, conditions: Homo sapiens, THP-1; ABCA1 reporter cell line (THP1, PMA-differentiated), 24 h incubation, luciferase chemiluminescence; read-out: E50 ABCA1

Question: With `COc1cccc(S(=O)(=O)N2C[C@H](C(=O)N3CCN(c4cc(C)ccc4C)CC3)[C@H](c3ccccc3)C2)c1` [Example 119, [4-(2,5-Dimethylphenyl)piperazin-1-yl]-[1-(3-methoxybenzenesulfonyl)-3,4-cis-4-phenylpyrrolidin-3-yl]methanone trifluoroacetate] as the compound, how does the EC50 read?
Answer: Its EC50 is 177 nM.

Question: For `Cc1cccc(N2CCN(C(=O)[C@@H]3CN(S(=O)(=O)c4cc(Cl)c(Cl)s4)C[C@H]3c3ccccc3)CC2)c1C` (racemic) [Example 55, [1-(4,5-Dichlorothiophene-2-sulfonyl)-3,4-trans-4-phenylpyrrolidin-3-yl]-[4-(2,3-dimethylphenyl)piperazin-1-yl]methanone], which EC50 is on record?
Answer: Its EC50 is 826 nM.

Question: `Cc1ccc(N2CCN(C(=O)[C@@H]3CN(S(=O)(=O)c4cccs4)C[C@H]3c3ccccc3)CC2)c(C)c1` (racemic) [Example 36, [4-(2,4-Dimethylphenyl)piperazin-1-yl]-[3,4-trans-4-phenyl-1-(thiophene-2-sulfonyl)pyrrolidin-3-yl]methanone] was tested. Which EC50 did it give?
Answer: Its EC50 is 3600 nM.

Question: Which EC50 does the source give for `Cc1cccc(N2CCN(C(=O)[C@@H]3CN(S(=O)(=O)c4cc(Br)c(Br)s4)C[C@H]3c3ccccc3)CC2)c1C` (racemic) [Example 53, [1-(4,5-Dibromothiophene-2-sulfonyl)-3,4-trans-4-phenylpyrrolidin-3-yl]-[4-(2,3-dimethylphenyl)piperazin-1-yl]methanone] here?
Answer: Its EC50 is 5760 nM.

Question: For `CC(=O)c1ccc(N2CCN(C(=O)[C@@H]3CN(S(=O)(=O)c4cccs4)C[C@H]3c3ccccc3)CC2)cc1` (racemic) [Example 7, 1-(4-{4-[3,4-trans-4-Phenyl-1-(thiophene-2-sulfonyl)pyrrolidine-3-carbonyl]-piperazin-1-yl}phenyl)ethanone], which EC50 is on record?
Answer: Its EC50 is 13200 nM.

Question: `O=C([C@@H]1CN(S(=O)(=O)c2cccnc2)C[C@H]1c1ccccc1)N1CCN(c2cc(Cl)ccc2Cl)CC1` [Example 73, [4-(2,5-Dichlorophenyl)piperazin-1-yl]-[3,4-trans-4-phenyl-1-(pyridine-3-sulfonyl)pyrrolidin-3-yl]methanone trifluoroacetate] was tested. Which EC50 did it give?
Answer: The EC50 was 407 nM.

Question: For `COc1cccc(S(=O)(=O)N2C[C@@H](C(=O)N3CCN(c4cc(C)ccc4C)CC3)[C@H](c3ccoc3)C2)c1` [Example 114, [4-(2,5-Dimethylphenyl)piperazin-1-yl]-[3,4-trans-4-furan-3-yl-1-(3-methoxybenzenesulfonyl)pyrrolidin-3-yl]methanone trifluoroacetate], which EC50 is on record?
Answer: The EC50 was 2140 nM.

Question: For `O=C([C@@H]1CN(S(=O)(=O)c2ccc(Cl)s2)C[C@H]1c1ccccc1)N1CCN(c2cccc(C(F)(F)F)c2)CC1` (racemic) [Example 32, [1-(5-Chlorothiophene-2-sulfonyl)-3,4-trans-4-phenylpyrrolidin-3-yl]-[4-(3-trifluoromethylphenyl)piperazin-1-yl]methanone], which EC50 is on record?
Answer: Its EC50 is 16200 nM.

Question: How did the EC50 turn out when `Cc1ccc(C)c(N2CCN(C(=O)[C@@H]3CN(S(=O)(=O)c4c(C)noc4C)C[C@H]3c3cccnc3)CC2)c1` [Example 112, [1-(3,5-Dimethylisoxazole-4-sulfonyl)-3,4-trans-4-pyridin-3-ylpyrrolidin-3-yl]-[4-(2,5-dimethylphenyl)piperazin-1-yl]methanone trifluoroacetate] was run?
Answer: Its EC50 is 14300 nM.

Question: How did the EC50 turn out when `COc1ccc(N2CCN(C(=O)[C@@H]3CN(S(=O)(=O)c4cc(Cl)c(Cl)s4)C[C@H]3c3ccccc3)CC2)cc1` (racemic) [Example 61, [1-(4,5-Dichlorothiophene-2-sulfonyl)-3,4-trans-4-phenylpyrrolidin-3-yl]-[4-(4-methoxyphenyl)piperazin-1-yl]methanone] was run?
Answer: The EC50 was 2610 nM.

Question: How did the EC50 turn out when `O=C([C@@H]1CN(S(=O)(=O)c2cc(Cl)c(Cl)s2)C[C@H]1c1ccccc1)N1CCN(c2cccc(C(F)(F)F)c2)CC1` (racemic) [Example 33, [1-(4,5-Dichlorothiophene-2-sulfonyl)-3,4-trans-4-phenylpyrrolidin-3-yl]-[4-(3-trifluoromethylphenyl)piperazin-1-yl]methanone] was run?
Answer: Its EC50 is 6590 nM.

Question: How did the EC50 turn out when `Cc1ccc(C)c(N2CCN(C(=O)[C@@H]3CN(S(=O)(=O)c4cccnc4)C[C@H]3c3ccccc3)CC2)c1` [Example 72, [4-(2,5-Dimethylphenyl)piperazin-1-yl]-[3,4-trans-4-phenyl-1-(pyridine-3-sulfonyl)pyrrolidin-3-yl]methanone trifluoroacetate] was run?
Answer: Its EC50 is 241 nM.

Question: `Cc1ccccc1S(=O)(=O)N1C[C@@H](C(=O)N2CCN(c3cc(Cl)ccc3Cl)CC2)[C@H](c2ccccc2)C1` [Example 85, [[4-(2,5-Dichlorophenyl)piperazin-1-yl]-[3,4-trans-4-phenyl-1-(toluene-2-sulfonyl)pyrrolidin-3-yl]methanone trifluoroacetate] was tested. Which EC50 did it give?
Answer: Its EC50 is 260 nM.

Question: How did the EC50 turn out when `Cc1ccc(C)c(N2CCN(C(=O)[C@@H]3CN(S(=O)(=O)c4ccc(Cl)s4)C[C@H]3c3ccccc3)CC2)c1` (racemic) [Example 48, [1-(5-Chlorothiophen-2-sulfonyl)-3,4-trans-4-phenylpyrrolidin-3-yl]-[4-(2,5-dimethylphenyl)piperazin-1-yl]methanone] was run?
Answer: The EC50 was 706 nM.

Question: How did the EC50 turn out when `Cc1ccc(C)c(N2CCN(C(=O)[C@@H]3CN(S(=O)(=O)c4c(C)noc4C)C[C@H]3Cc3ccccc3)CC2)c1` [Example 93, [3,4-trans-4-Benzyl-1-(3,5-dimethylisoxazole-4-sulfonyl)pyrrolidin-3-yl]-[4-(2,5-dimethylphenyl)piperazin-1-yl]methanone trifluoroacetate] was run?
Answer: Its EC50 is 2480 nM.

Question: Which EC50 does the source give for `O=C([C@@H]1CN(S(=O)(=O)c2cc(Cl)c(Cl)s2)C[C@H]1c1ccccc1)N1CCN(c2ccccc2)CC1` [Example 21, [1-(4,5-Dichlorothiophene-2-sulfonyl)-3,4-trans-4-phenylpyrrolidin-3-yl]-(4-phenylpiperazin-1-yl)methanone] here?
Answer: The EC50 was 4620 nM.

Question: Which EC50 does the source give for `Cc1ccc(C)c(N2CCN(C(=O)[C@H]3CN(S(=O)(=O)c4c(C)noc4C)C[C@H]3c3ccccc3)CC2)c1` [Example 118, [1-(3,5-Dimethylisoxazole-4-sulfonyl)-3,4-cis-4-phenylpyrrolidin-3-yl]-[4-(2,5-dimethylphenyl)piperazin-1-yl]methanone trifluoroacetate] here?
Answer: Its EC50 is 346 nM.

Question: How did the EC50 turn out when `Cc1ccc(C)c(N2CCN(C(=O)[C@@H]3CN(S(=O)(=O)c4c(C)noc4C)C[C@H]3c3ccccc3)CC2)c1` (racemic) [Example 71, [1-(3,5-Dimethylisoxazole-4-sulfonyl)-3,4-trans-4-phenylpyrrolidin-3-yl]-[4-(2,5-dimethylphenyl)piperazin-1-yl]methanone] was run?
Answer: The EC50 was 381 nM.

Question: For `COc1ccc(OC)c(N2CCN(C(=O)[C@@H]3CN(S(=O)(=O)c4cccs4)C[C@H]3c3ccccc3)CC2)c1` [Example 84, [4-(2,5-Dimethoxyphenyl)piperazin-1-yl]-[3,4-trans-4-phenyl-1-(thiophene-2-sulfonyl)pyrrolidin-3-yl]methanone trifluoroacetate], which EC50 is on record?
Answer: The EC50 was 2670 nM.

Question: Which EC50 does the source give for `Cc1cccc(S(=O)(=O)N2C[C@@H](C(=O)N3CCN(c4cc(Cl)ccc4Cl)CC3)[C@H](c3ccccc3)C2)c1` [Example 74, [4-(2,5-Dichlorophenyl)piperazin-1-yl]-[3,4-trans-4-phenyl-1-(toluene-3-sulfonyl)pyrrolidin-3-yl]methanone trifluoroacetate] here?
Answer: Its EC50 is 340 nM.
